From article PMC12041855 (2025) come the findings set out here.

Assay [1] deals with Zar1 5′-UTR (RNA, G4) UGGGCGGGCGAGGCGCGGGACGCACCC
The experiment in a line: ITC. Conditions: 60 mM KCl, 25 mM KH2PO4; pH 7.4, 0.4% DMSO, 25°C; one set of sites; 10 μM RNA, 100 μM BYBX in syringe.

For assay [2], the system named is Zar1 5′-UTR^ΔrG4 (RNA, single strand) UGAACAAACGAAACACGAAACGCACCC
Nature of the assay: ITC. The note with it: 60 mM KCl, 25 mM KH2PO4; pH 7.4, 0.4% DMSO, 25°C; n.d., signal too weak; 100 μM BYBX in syringe.

The test system of assay [3] is Zar1 5′-UTR (RNA, G4) UGGGCGGGCGAGGCGCGGGACGCACCC
The experiment in a line: CD titration. Conditions: 100 mM KCl; 10 mM Tris-HCl pH 7.4, 25°C; 5 μM RNA, 5-20 μM BYBX.

The test system is the same in assay [4]. The experiment in a line: CD melting at 262 nm. Conditions: 20 mM KCl; 10 mM Tris-HCl pH 7.4; 10 μM BYBX, 5 μM RNA.
Assay [5] has as its system Zar1 5′-UTR^ΔrG4 (RNA, single strand) UGAACAAACGAAACACGAAACGCACCC
The experiment in a line: CD melting at 262 nm. Conditions: 20 mM KCl; 10 mM Tris-HCl pH 7.4; 10 μM BYBX, 5 μM RNA; no melting transition seen.

Assay [6] deals with Zar1 5′-UTR (RNA, G4) UGGGCGGGCGAGGCGCGGGACGCACCC
Nature of the assay: fluorescence titration (ex 447 nm, em 538 nm). Conditions: 100 mM KCl; 10 mM Tris-HCl pH 7.4, 25°C; 1 μM BYBX, RNA 0-1.9 μM; 50-fold enhancement.

Assay [7] concerns Zar1 5′-UTR^ΔrG4 (RNA, single strand) UGAACAAACGAAACACGAAACGCACCC
The experiment in a line: fluorescence titration (ex 447 nm, em 538 nm). The note with it: 100 mM KCl; 10 mM Tris-HCl pH 7.4, 25°C; 1 μM BYBX; almost no emission.

One may read the KD as the equilibrium constant for the complex coming apart. High values mean weaker binding, low ones tighter binding. The ΔTm is the change in melting temperature against a reference sample. Regarding `CN1/C(=C/C2=[N+](CC(N)=O)c3ccc4ccccc4c3C2(C)C)Sc2ccccc21`, the KD in assay [1] stood at 393 nM. For the same compound, the binding entry in assay [2] is recorded as “no”; in assay [3] it was “yes”; in assay [6] it was “yes”; in assay [7] it was “no”. For the same compound, the ΔTm in assay [4] stood at 11 °C; in assay [5] it was 0.06 °C.
